For one assay, the system named is A-427. Nature of the assay: relative viability (nuclei count vs DMSO), 5 days (fraction); higher = more cells survive. The settings on record: first compound 0.08 µM. The gist of the method: (§1)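 Nuclei were stained with Hoechst during a one-step fixation (final 0.05% Triton X-100, 1% formaldehyde, 1 ug/ml Hoechst) carried out 5 days after dosing, then counted on 4× images. The cells, lung cancer lines in 1536-well plates, had been dosed by pin tool the day after seeding with one drug alone or a fixed anchor-drug dose plus five library-drug doses (not always all listed) in √10 steps. Relative viability is the nuclei count in treated wells divided by that in vehicle wells, and each value is the median of duplicate plates.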
With `CCCCCCCCCCCC1=C(O)C(=O)C=C(O)C1=O` [Embelin] + CC(=O)c1c(C)c2cnc(Nc3ccc(N4CCNCC4)cn3)nc2n(C2CCCC2)c1=O [Palbociclib] (partner 0.5 µM), the relative viability came out at 0.525.

The same assay, now with this note: first compound 0.8 µM.
`CCCCCCCCCCCC1=C(O)C(=O)C=C(O)C1=O` [Embelin] + N=C(N)NC(=N)NCCc1ccccc1 [Phenformin] (partner 250 µM): the relative viability was found to be 0.411.

As to `CCCCCCCCCCCC1=C(O)C(=O)C=C(O)C1=O` [Embelin] + CCNC(=O)c1noc(-c2cc(C(C)C)c(O)cc2O)c1-c1ccc(CN2CCOCC2)cc1 [Luminespib] (partner 0.01 µM), the relative viability stood at 0.998.

Compound `CCCCCCCCCCCC1=C(O)C(=O)C=C(O)C1=O` [Embelin] + Cc1nc(Nc2ncc(C(=O)Nc3c(C)cccc3Cl)s2)cc(N2CCN(CCO)CC2)n1 [Dasatinib] (partner 0.075 µM) showed a relative viability of 0.805.

Consider `CCCCCCCCCCCC1=C(O)C(=O)C=C(O)C1=O` [Embelin] + NC(=O)Nc1cc(-c2cccc(F)c2)sc1C(=O)N[C@H]1CCCNC1 [AZD7762] (partner 0.2 µM), for which the relative viability came out at 0.877.

Turning to `CCCCCCCCCCCC1=C(O)C(=O)C=C(O)C1=O` [Embelin] + CC(=O)c1c(C)c2cnc(Nc3ccc(N4CCNCC4)cn3)nc2n(C2CCCC2)c1=O [Palbociclib] (partner 0.5 µM), the relative viability was determined as 0.563.

The same assay, now with this note: first compound 2.53 µM.
In the case of `CCCCCCCCCCCC1=C(O)C(=O)C=C(O)C1=O` [Embelin] + N=C(N)NC(=N)NCCc1ccccc1 [Phenformin] (partner 250 µM), the relative viability was found to be 0.328.

In turn, `CCCCCCCCCCCC1=C(O)C(=O)C=C(O)C1=O` [Embelin] + CCNC(=O)c1noc(-c2cc(C(C)C)c(O)cc2O)c1-c1ccc(CN2CCOCC2)cc1 [Luminespib] (partner 0.01 µM) showed a relative viability of 0.966.

On to `CCCCCCCCCCCC1=C(O)C(=O)C=C(O)C1=O` [Embelin] + Cc1nc(Nc2ncc(C(=O)Nc3c(C)cccc3Cl)s2)cc(N2CCN(CCO)CC2)n1 [Dasatinib] (partner 0.075 µM), for which the relative viability amounted to 0.689.

On to `CCCCCCCCCCCC1=C(O)C(=O)C=C(O)C1=O` [Embelin] + NC(=O)Nc1cc(-c2cccc(F)c2)sc1C(=O)N[C@H]1CCCNC1 [AZD7762] (partner 0.2 µM), for which the relative viability is 0.737.

Take `CCCCCCCCCCCC1=C(O)C(=O)C=C(O)C1=O` [Embelin] + CC(=O)c1c(C)c2cnc(Nc3ccc(N4CCNCC4)cn3)nc2n(C2CCCC2)c1=O [Palbociclib] (partner 0.5 µM): the relative viability worked out at 0.526.

The same assay, now with this note: first compound 8 µM.
In turn, `CCCCCCCCCCCC1=C(O)C(=O)C=C(O)C1=O` [Embelin] + N=C(N)NC(=N)NCCc1ccccc1 [Phenformin] (partner 250 µM) had a relative viability of 0.363.

`CCCCCCCCCCCC1=C(O)C(=O)C=C(O)C1=O` [Embelin] + CCNC(=O)c1noc(-c2cc(C(C)C)c(O)cc2O)c1-c1ccc(CN2CCOCC2)cc1 [Luminespib] (partner 0.01 µM) displayed a relative viability of 1.18.

Compound `CCCCCCCCCCCC1=C(O)C(=O)C=C(O)C1=O` [Embelin] + Cc1nc(Nc2ncc(C(=O)Nc3c(C)cccc3Cl)s2)cc(N2CCN(CCO)CC2)n1 [Dasatinib] (partner 0.075 µM) yielded a relative viability of 0.727.

For the compound `CCCCCCCCCCCC1=C(O)C(=O)C=C(O)C1=O` [Embelin] + NC(=O)Nc1cc(-c2cccc(F)c2)sc1C(=O)N[C@H]1CCCNC1 [AZD7762] (partner 0.2 µM), the relative viability amounted to 0.452.

Compound `CCCCCCCCCCCC1=C(O)C(=O)C=C(O)C1=O` [Embelin] + CC(=O)c1c(C)c2cnc(Nc3ccc(N4CCNCC4)cn3)nc2n(C2CCCC2)c1=O [Palbociclib] (partner 0.5 µM) returned a relative viability of 0.496.

Another assay concerns NCI-H650. The description is as above. Conditions: first compound 0.08 µM. The procedure, abridged: as §1
`CCCCCCCCCCCC1=C(O)C(=O)C=C(O)C1=O` [Embelin] + N=C(N)NC(=N)NCCc1ccccc1 [Phenformin] (partner 250 µM) showed a relative viability of 0.436.

Compound `CCCCCCCCCCCC1=C(O)C(=O)C=C(O)C1=O` [Embelin] + CCNC(=O)c1noc(-c2cc(C(C)C)c(O)cc2O)c1-c1ccc(CN2CCOCC2)cc1 [Luminespib] (partner 0.01 µM) came in with a relative viability of 0.712.

In turn, `CCCCCCCCCCCC1=C(O)C(=O)C=C(O)C1=O` [Embelin] + Cc1nc(Nc2ncc(C(=O)Nc3c(C)cccc3Cl)s2)cc(N2CCN(CCO)CC2)n1 [Dasatinib] (partner 0.075 µM) returned a relative viability of 0.443.

As for `CCCCCCCCCCCC1=C(O)C(=O)C=C(O)C1=O` [Embelin] + NC(=O)Nc1cc(-c2cccc(F)c2)sc1C(=O)N[C@H]1CCCNC1 [AZD7762] (partner 0.2 µM), the relative viability worked out at 0.889.

For the compound `CCCCCCCCCCCC1=C(O)C(=O)C=C(O)C1=O` [Embelin] + CC(=O)c1c(C)c2cnc(Nc3ccc(N4CCNCC4)cn3)nc2n(C2CCCC2)c1=O [Palbociclib] (partner 0.5 µM), the relative viability turned out to be 0.272.

The same assay, now with this note: first compound 0.8 µM.
Consider `CCCCCCCCCCCC1=C(O)C(=O)C=C(O)C1=O` [Embelin] + N=C(N)NC(=N)NCCc1ccccc1 [Phenformin] (partner 250 µM), for which the relative viability is 0.524.

As for `CCCCCCCCCCCC1=C(O)C(=O)C=C(O)C1=O` [Embelin] + CCNC(=O)c1noc(-c2cc(C(C)C)c(O)cc2O)c1-c1ccc(CN2CCOCC2)cc1 [Luminespib] (partner 0.01 µM), the relative viability worked out at 0.986.

On to `CCCCCCCCCCCC1=C(O)C(=O)C=C(O)C1=O` [Embelin] + Cc1nc(Nc2ncc(C(=O)Nc3c(C)cccc3Cl)s2)cc(N2CCN(CCO)CC2)n1 [Dasatinib] (partner 0.075 µM), for which the relative viability is 0.485.

With `CCCCCCCCCCCC1=C(O)C(=O)C=C(O)C1=O` [Embelin] + NC(=O)Nc1cc(-c2cccc(F)c2)sc1C(=O)N[C@H]1CCCNC1 [AZD7762] (partner 0.2 µM), the relative viability was found to be 1.03.

Regarding `CCCCCCCCCCCC1=C(O)C(=O)C=C(O)C1=O` [Embelin] + CC(=O)c1c(C)c2cnc(Nc3ccc(N4CCNCC4)cn3)nc2n(C2CCCC2)c1=O [Palbociclib] (partner 0.5 µM), the relative viability was found to be 0.407.

Staying with this assay, now noted: first compound 2.53 µM.
The compound `CCCCCCCCCCCC1=C(O)C(=O)C=C(O)C1=O` [Embelin] + N=C(N)NC(=N)NCCc1ccccc1 [Phenformin] (partner 250 µM) yielded a relative viability of 0.312.

Source of the values: the supplement of paper PMC10307832.
